A word on the IC50: it is the concentration needed to halve the response being measured.

The record followed here is patent US9676773B2, “Azaindole derivative” (TAIHO PHARMACEUTICAL CO., LTD., priority 2014, dated 2017).

Holding throughout (format): biochemical
Assay [1] addresses T1, purified recombinant human JAK2 protein (Homo sapiens, UniProt O60674).
T1 construct: purchased Carna Biosciences, Inc
As to the kind of experiment: Measurement of JAK2 kinase-inhibitory activity. Particulars: FL-Peptide 22 1 μM, ATP 10 μM, 25° C., 80 minutes. Here is the method: 2) Measurement of JAK2 Kinase-Inhibitory Activity
The activity of the compound of the present invention to inhibit the activity of JAK2 kinase was measured.
Among materials for the measurement of this inhibitory activity, a substrate peptide and a kinase protein were acquired as follows. As such a substrate peptide, FL-Peptide 22 (Perkin Elmer Corp.) was purchased. As such a kinase protein, a purified recombinant human JAK2 protein (Carna Biosciences, Inc.) was purchased.
(§1) The method for measuring the inhibitory activity is as follows. First, a serial dilution of the compound of the present invention was prepared by the same method as that described in the above section regarding JAK1. This serial dilution solution (the final concentration of DMSO upon a kinase reaction: 5.0%) or DMSO (final concentration: 5.0%) was mixed with a solution containing the substrate peptide (final concentration: 1 μM), magnesium chloride (final concentration: 10 mM) and ATP (final concentration: 10 μM) in a buffer for kinase reaction (15 mM Tris (pH 7.5), 2 mM dithiothreitol and 0.01% Tween 20). Thereafter, a JAK2 protein was further added to the mixed solution, and the obtained mixture was then incubated at 25° C. for 80 minutes to carry out a kinase reaction. To the reaction solution, EDTA was added to a final concentration of 30 mM, so as to terminate the reaction. After termination of the reaction, the measurement and the data analysis were carried out by the same methods as those described in the above section regarding JAK1.

Assay [2] concerns the target T2, purified recombinant human JAK3 protein (Homo sapiens, UniProt P52333).
T2 construct: purchased Carna Biosciences, Inc
T2 sequence (P52333 1-1124): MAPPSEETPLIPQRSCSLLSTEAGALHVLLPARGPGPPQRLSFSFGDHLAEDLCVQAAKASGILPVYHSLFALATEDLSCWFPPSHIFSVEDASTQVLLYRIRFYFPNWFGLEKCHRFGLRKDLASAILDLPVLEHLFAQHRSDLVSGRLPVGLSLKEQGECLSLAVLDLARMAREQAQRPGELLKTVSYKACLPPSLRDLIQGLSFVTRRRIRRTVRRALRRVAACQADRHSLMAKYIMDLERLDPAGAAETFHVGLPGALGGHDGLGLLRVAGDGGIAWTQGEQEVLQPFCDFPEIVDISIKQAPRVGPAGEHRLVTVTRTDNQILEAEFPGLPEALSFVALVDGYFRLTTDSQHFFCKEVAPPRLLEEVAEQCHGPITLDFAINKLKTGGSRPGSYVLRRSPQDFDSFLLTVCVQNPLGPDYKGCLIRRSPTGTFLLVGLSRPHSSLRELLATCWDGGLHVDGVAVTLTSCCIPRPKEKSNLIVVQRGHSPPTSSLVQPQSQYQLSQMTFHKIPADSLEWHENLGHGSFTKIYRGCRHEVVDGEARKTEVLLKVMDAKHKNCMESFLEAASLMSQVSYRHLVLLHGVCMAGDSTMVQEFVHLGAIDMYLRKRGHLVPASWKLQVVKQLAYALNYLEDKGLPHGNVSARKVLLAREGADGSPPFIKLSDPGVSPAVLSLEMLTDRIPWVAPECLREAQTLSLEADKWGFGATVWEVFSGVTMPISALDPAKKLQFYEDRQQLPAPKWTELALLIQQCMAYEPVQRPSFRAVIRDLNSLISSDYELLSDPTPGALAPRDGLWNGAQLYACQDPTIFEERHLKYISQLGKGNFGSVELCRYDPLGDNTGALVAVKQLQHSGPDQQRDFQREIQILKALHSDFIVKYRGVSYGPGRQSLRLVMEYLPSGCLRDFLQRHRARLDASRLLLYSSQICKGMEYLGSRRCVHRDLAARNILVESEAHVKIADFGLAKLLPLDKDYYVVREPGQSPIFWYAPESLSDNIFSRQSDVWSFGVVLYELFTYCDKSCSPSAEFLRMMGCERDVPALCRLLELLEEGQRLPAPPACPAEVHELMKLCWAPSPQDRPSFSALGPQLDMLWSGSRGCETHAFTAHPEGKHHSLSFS
As to the kind of experiment: Measurement of JAK3 kinase-inhibitory activity. The conditions noted are these: substrate peptide 1 μM, ATP 5 μM, 25° C., 80 minutes. On the procedure:
3) Measurement of JAK3 Kinase-Inhibitory Activity
The activity of the compound of the present invention to inhibit the activity of JAK3 kinase was measured.
Among materials for the measurement of this inhibitory activity, a substrate peptide and a kinase protein were acquired as follows. As such a substrate peptide, a substrate peptide for QSS Assist™ JAK3-MSA assay kit (Carna Biosciences, Inc.) was purchased. As such a kinase protein, a purified recombinant human JAK3 protein (Carna Biosciences, Inc.) was purchased.
as §1, with “5” for “10”, “(20” for “(15”, “HEPES” for “Tris”, “Triton X-100).” for “Tween 20).”, “JAK3” for “JAK2”

In assay [3] the target is T3, purified recombinant human JAK1 protein (Homo sapiens, UniProt P23458).
T3 construct: purchased Carna Biosciences, Inc
T3 sequence (P23458 whole entry): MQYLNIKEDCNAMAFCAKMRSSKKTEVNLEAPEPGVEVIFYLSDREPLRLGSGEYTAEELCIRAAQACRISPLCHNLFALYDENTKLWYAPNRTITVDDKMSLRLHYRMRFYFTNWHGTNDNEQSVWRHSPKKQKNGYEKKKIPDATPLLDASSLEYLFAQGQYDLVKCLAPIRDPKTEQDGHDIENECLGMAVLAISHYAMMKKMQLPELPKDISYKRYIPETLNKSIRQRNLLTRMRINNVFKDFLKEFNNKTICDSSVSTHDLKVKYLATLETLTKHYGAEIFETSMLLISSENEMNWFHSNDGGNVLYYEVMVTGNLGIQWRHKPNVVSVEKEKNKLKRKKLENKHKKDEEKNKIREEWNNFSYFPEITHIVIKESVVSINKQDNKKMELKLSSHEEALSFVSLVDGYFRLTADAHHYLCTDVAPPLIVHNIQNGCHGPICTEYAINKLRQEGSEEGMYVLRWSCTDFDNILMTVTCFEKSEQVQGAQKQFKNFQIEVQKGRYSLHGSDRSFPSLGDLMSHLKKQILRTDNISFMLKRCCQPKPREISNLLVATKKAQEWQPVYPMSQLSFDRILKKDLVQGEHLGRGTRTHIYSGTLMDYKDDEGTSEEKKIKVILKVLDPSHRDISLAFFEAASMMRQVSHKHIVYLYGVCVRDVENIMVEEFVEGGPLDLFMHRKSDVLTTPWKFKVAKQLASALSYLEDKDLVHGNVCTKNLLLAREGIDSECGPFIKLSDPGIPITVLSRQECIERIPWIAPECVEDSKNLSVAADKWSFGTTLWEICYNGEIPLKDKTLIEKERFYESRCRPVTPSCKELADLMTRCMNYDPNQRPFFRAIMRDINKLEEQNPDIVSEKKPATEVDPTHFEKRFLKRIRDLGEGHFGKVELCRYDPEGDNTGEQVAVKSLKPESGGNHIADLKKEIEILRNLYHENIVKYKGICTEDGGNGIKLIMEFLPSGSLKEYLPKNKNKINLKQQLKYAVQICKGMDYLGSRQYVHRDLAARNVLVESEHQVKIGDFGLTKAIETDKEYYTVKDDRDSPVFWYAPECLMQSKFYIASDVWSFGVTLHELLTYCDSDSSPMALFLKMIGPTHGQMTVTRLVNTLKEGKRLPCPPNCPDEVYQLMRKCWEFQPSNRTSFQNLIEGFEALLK
Kind of assay: Measurement of JAK1 kinase-inhibitory activity. Particulars: substrate peptide 1 μM, ATP 75 M (so in the source), 25° C., 120 minutes. Here is the method: 1) Measurement of JAK1 Kinase-Inhibitory Activity
The activity of the compound of the present invention to inhibit the activity of JAK1 kinase was measured.
Among materials for the measurement of this inhibitory activity, a substrate peptide and a kinase protein were acquired as follows. As such a substrate peptide, a substrate peptide for QSS Assist™ JAK1-MSA assay kit (Carna Biosciences, Inc.) was purchased. As such a kinase protein, a purified recombinant human JAK1 protein (Carna Biosciences, Inc.) was purchased.
The method for measuring the inhibitory activity is as follows. First, the compounds of the present invention were each dissolved in dimethyl sulfoxide (DMSO), and a serial dilution was then prepared by the use of DMSO. Subsequently, a serial dilution solution of the compound (the final concentration of DMSO upon a kinase reaction: 5.0%) or DMSO (final concentration: 5.0%) was mixed with a solution containing the substrate peptide (final concentration: 1 μM), magnesium chloride (final concentration: 5 mM) and ATP (final concentration: 75 µM) in a buffer for kinase reaction (20 mM HEPES (pH 7.5), 2 mM dithiothreitol and 0.01% Triton X-100). Thereafter, a JAK1 protein was further added to the mixed solution, and the obtained mixture was then incubated at 25° C. for 120 minutes to carry out a kinase reaction. To the reaction solution, EDTA was added to a final concentration of 30 mM, so as to terminate the reaction. Finally, with LabChip EZ Reader II (Perkin Elmer Corp.), an unphosphorylated substrate peptide (S) and a phosphorylated peptide (P) were subjected to microchannel capillary electrophoresis, so that the two peptides were separated from each other and were then detected. The amount of a phosphorylation reaction was obtained based on the heights of the peaks of S and P, and the concentration of the compound capable of inhibiting 50% of the phosphorylation reaction was defined as an IC50 value (nM).

Bounds are passed on as bounds.

T1 sequence (O60674 whole entry): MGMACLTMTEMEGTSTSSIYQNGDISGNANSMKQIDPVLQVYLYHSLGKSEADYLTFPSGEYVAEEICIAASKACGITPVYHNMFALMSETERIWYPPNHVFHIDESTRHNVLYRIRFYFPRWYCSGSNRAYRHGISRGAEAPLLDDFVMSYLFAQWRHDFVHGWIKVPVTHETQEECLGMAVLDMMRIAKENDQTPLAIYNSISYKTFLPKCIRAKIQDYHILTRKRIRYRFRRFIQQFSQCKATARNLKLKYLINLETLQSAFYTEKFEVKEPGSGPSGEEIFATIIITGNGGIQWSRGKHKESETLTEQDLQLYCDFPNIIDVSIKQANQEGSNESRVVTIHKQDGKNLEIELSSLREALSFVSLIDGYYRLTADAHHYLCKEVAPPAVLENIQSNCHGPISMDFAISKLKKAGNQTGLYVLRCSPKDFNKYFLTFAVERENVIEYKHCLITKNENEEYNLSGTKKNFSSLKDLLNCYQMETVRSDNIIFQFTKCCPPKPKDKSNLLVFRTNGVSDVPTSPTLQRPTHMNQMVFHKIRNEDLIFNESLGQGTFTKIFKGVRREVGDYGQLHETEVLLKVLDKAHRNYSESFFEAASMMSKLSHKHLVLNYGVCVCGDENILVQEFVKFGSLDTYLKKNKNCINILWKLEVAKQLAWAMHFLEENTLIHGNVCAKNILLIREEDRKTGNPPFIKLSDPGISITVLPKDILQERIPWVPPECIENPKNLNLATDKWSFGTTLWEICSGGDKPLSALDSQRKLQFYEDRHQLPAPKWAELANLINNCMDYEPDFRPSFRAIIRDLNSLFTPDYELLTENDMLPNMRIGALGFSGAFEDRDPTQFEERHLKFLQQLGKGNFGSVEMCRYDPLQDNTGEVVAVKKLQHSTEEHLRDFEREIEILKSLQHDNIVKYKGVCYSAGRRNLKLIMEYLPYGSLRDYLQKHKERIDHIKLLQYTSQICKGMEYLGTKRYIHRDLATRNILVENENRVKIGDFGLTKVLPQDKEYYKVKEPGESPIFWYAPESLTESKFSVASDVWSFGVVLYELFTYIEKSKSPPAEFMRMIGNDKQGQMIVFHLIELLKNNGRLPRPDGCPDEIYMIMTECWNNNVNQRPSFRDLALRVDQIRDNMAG

Take `C=CC(=O)NC1CCC=C(c2c(C#N)cnc3[nH]cc(-c4ccco4)c23)C1` (stereo not drawn) [Compound 45, N-(3-(5-Cyano-3-(furan-2-yl)-1H-pyrrolo[2,3-b]pyridin-4-yl)cyclohex-3-en-1-yl)acrylamide]: the IC50 in assay [1] came out at 440 nM; in assay [2] it was 0.34 nM; in assay [3], 1600 nM.
As to `C=CC(=O)NC1CCC=C(c2ccnc3[nH]cc(-c4nnc(C)o4)c23)C1` (stereo not drawn) [Compound 50, N-(3-(3-(5-Methyl-1,3,4-oxadiazol-2-yl)-1H-pyrrolo[2,3-b]pyridin-4-yl)cyclohex-3-en-1-yl)acrylamide], the results for the IC50 in assay [1], in assay [2] and in assay [3] were 920 nM, 0.62 nM and 3800 nM, respectively.
Consider `C=CC(=O)NC1CCC=C(c2ccnc3[nH]cc(-c4nnc(CC)o4)c23)C1` (stereo not drawn) [Compound 51, N-(3-(3-(5-Ethyl-1,3,4-oxadiazol-2-yl)-1H-pyrrolo[2,3-b]pyridin-4-yl)cyclohex-3-en-1-yl)acrylamide], for which the half-inhibitory concentration (IC50) turned out to be 380 nM in assay [1], 0.61 nM in assay [2] and 3000 nM in assay [3].
For `C=CC(=O)NC1CCC=C(c2ccnc3[nH]cc(-c4n[nH]c(=O)o4)c23)C1` (stereo not drawn) [Compound 52, N-(3-(3-(5-Oxo-4,5-dihydro-1,3,4-oxadiazol-2-yl)-1H-pyrrolo[2,3-b]pyridin-4-yl)cyclohex-3-en-1-yl)acrylamide], in that order: 480 nM, less than 0.3 nM and 890 nM.
